Laboratory results reported in PubChem BioAssay AID2060511 (Molecular Pharmacology Branch, DTP, NCI, 2025).

Tested on: 422866-222-R5-J1-PDC spheroids with HUVEC/MSC, viability
Experiment: Anticancer human tumor 422866-222-R5-J1-PDC patient-derived pancreatic adenocarcinoma cell line growth inhibition [GQUAD]
Conditions: for IC50: curve of first compound; for viability, T/C: stronger effect = lower value
In short: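 Multi-cell-type spheroids of tumor cells with HUVEC and mesenchymal stem cells, treated with drug combinations. Concentrations descend in half-log steps from near clinical Cmax, or from 10 microM where Cmax is unknown; viability read-out.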

[1] = second compound 0.0316 µM, first compound 0.000999 µM
[2] = second compound 0.0316 µM, first compound 0.00316 µM
[3] = second compound 0.0316 µM, first compound 0.00999 µM
[4] = second compound 0.0316 µM, first compound 0.0316 µM
[5] = second compound 0.0316 µM, first compound 0.0999 µM
[6] = second compound 0.0316 µM, first compound 0.316 µM
[7] = second compound 0.1 µM, first compound 0.000999 µM
[8] = second compound 0.1 µM, first compound 0.00316 µM
[9] = second compound 0.1 µM, first compound 0.00999 µM
[10] = second compound 0.1 µM, first compound 0.0316 µM
[11] = second compound 0.1 µM, first compound 0.0999 µM
[12] = second compound 0.1 µM, first compound 0.316 µM
[13] = second compound 0.316 µM, first compound 0.000999 µM
[14] = second compound 0.316 µM, first compound 0.00316 µM
[15] = second compound 0.316 µM, first compound 0.00999 µM
[16] = second compound 0.316 µM, first compound 0.0316 µM
[17] = second compound 0.316 µM, first compound 0.0999 µM
[18] = second compound 0.316 µM, first compound 0.316 µM
[19] = second compound 1 µM, first compound 0.000999 µM
[20] = second compound 1 µM, first compound 0.00316 µM
[21] = second compound 1 µM, first compound 0.00999 µM
[22] = second compound 1 µM, first compound 0.0316 µM
[23] = second compound 1 µM, first compound 0.0999 µM
[24] = second compound 1 µM, first compound 0.316 µM
[25] = second compound 3.16 µM, first compound 0.000999 µM
[26] = second compound 3.16 µM, first compound 0.00316 µM
[27] = second compound 3.16 µM, first compound 0.00999 µM
[28] = second compound 3.16 µM, first compound 0.0316 µM
[29] = second compound 3.16 µM, first compound 0.0999 µM
[30] = second compound 3.16 µM, first compound 0.316 µM
[31] = second compound 10 µM, first compound 0.000999 µM
[32] = second compound 10 µM, first compound 0.00316 µM
[33] = second compound 10 µM, first compound 0.00999 µM
[34] = second compound 10 µM, first compound 0.0316 µM
[35] = second compound 10 µM, first compound 0.0999 µM
[36] = second compound 10 µM, first compound 0.316 µM
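Also: spheroids exposed to compounds for seven days before reading.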
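For viability, T/C in this document: percent viability relative to DMSO vehicle control taken as 100%.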

`CCc1c2c(nc3ccc(O)cc13)-c1cc3c(c(=O)n1C2)COC(=O)[C@]3(O)CC` + CN(C)c1ccc(Nc2c3ccc(NC(=O)CCN4CCCC4)cc3nc3cc(NC(=O)CCN4CCCC4)ccc23)cc1 gave an IC50 (second compound 0.0316 µM) of 0.0068 µM, an IC50 (second compound 0.1 µM) of 0.049 µM and an IC50 (second compound 0.316 µM) of 0.00286 µM. For the same molecule, the IC50 (second compound 1 µM) was 0.00241 µM, the IC50 (second compound 3.16 µM) was 0.11 µM and the IC50 (second compound 10 µM) was greater than 0.316 µM. The viability, T/C [1] was 64.9%, the viability, T/C [2] was 54.1% and the viability, T/C [3] was 46.6%. It also gave a viability, T/C [4] of 46.7%, a viability, T/C [5] of 48% and a viability, T/C [6] of 47.1%. The viability, T/C [7] was 63.6%, the viability, T/C [8] was 46.9% and the viability, T/C [9] was 46.7%. The viability, T/C [10] was 57.1%, the viability, T/C [11] was 57.8% and the viability, T/C [12] was 39.2%. It also gave a viability, T/C [13] of 77.5%, a viability, T/C [14] of 47.2% and a viability, T/C [15] of 46.4%. The viability, T/C [16] was 55.1%, the viability, T/C [17] was 50.5% and the viability, T/C [18] was 37.3%. The viability, T/C [19] was 54%, the viability, T/C [20] was 43.4% and the viability, T/C [21] was 45.2%. It also gave a viability, T/C [22] of 57.1%, a viability, T/C [23] of 46.8% and a viability, T/C [24] of 40.5%. The viability, T/C [25] was 58.6%, the viability, T/C [26] was 54.3% and the viability, T/C [27] was 40.6%. For the same molecule, the viability, T/C [28] was 48.5%, the viability, T/C [29] was 63.6% and the viability, T/C [30] was 43.9%. It also gave a viability, T/C [31] of 58.4%, a viability, T/C [32] of 49.7% and a viability, T/C [33] of 58.3%. For the same molecule, the viability, T/C [34] was 50.8%, the viability, T/C [35] was 64.5% and the viability, T/C [36] was 41%.
`Cc1[nH]c2ccccc2c1CCNCc1ccc(/C=C/C(=O)NO)cc1` + Cc1cnc(CNC(=O)c2c(=O)c3ccc(N4CCCN(C)CC4)nc3n3c2sc2ccccc23)cn1 was tested, and the IC50 (second compound 0.0316 µM) was greater than 0.316 µM, the IC50 (second compound 0.1 µM) was 0.277 µM and the IC50 (second compound 0.316 µM) was greater than 0.316 µM. For the same molecule, the IC50 (second compound 1 µM) was greater than 0.316 µM, the IC50 (second compound 3.16 µM) was 0.269 µM and the IC50 (second compound 10 µM) was 0.227 µM. It also gave a viability, T/C [1] of 99.8%, a viability, T/C [2] of 94.7% and a viability, T/C [3] of 83.5%. It also gave a viability, T/C [4] of 65.8%, a viability, T/C [5] of 77.8% and a viability, T/C [6] of 46.8%. The viability, T/C [7] was 91.6%, the viability, T/C [8] was 86.7% and the viability, T/C [9] was 83.4%. The viability, T/C [10] was 66.6%, the viability, T/C [11] was 68% and the viability, T/C [12] was 46.6%. The viability, T/C [13] was 79.5%, the viability, T/C [14] was 73.9% and the viability, T/C [15] was 80.3%. For the same molecule, the viability, T/C [16] was 78.8%, the viability, T/C [17] was 67.4% and the viability, T/C [18] was 55.9%. For the same molecule, the viability, T/C [19] was 75.2%, the viability, T/C [20] was 72.6% and the viability, T/C [21] was 74.3%. For the same molecule, the viability, T/C [22] was 62.6%, the viability, T/C [23] was 70.4% and the viability, T/C [24] was 63.7%. It also gave a viability, T/C [25] of 73.8%, a viability, T/C [26] of 78.6% and a viability, T/C [27] of 87.4%. It also gave a viability, T/C [28] of 78.8%, a viability, T/C [29] of 76.1% and a viability, T/C [30] of 45.8%. For the same molecule, the viability, T/C [31] was 75.2%, the viability, T/C [32] was 67.8% and the viability, T/C [33] was 68.7%. For the same molecule, the viability, T/C [34] was 84.5%, the viability, T/C [35] was 70.3% and the viability, T/C [36] was 41.4%.
`COc1ccc([C@@H](O)c2cc(-c3ncnc4cc(N5CCOCC5)ccc34)c(F)cc2Cl)nn1` + CN(C)c1ccc(Nc2c3ccc(NC(=O)CCN4CCCC4)cc3nc3cc(NC(=O)CCN4CCCC4)ccc23)cc1 gave an IC50 (second compound 0.0316 µM) of 2.85 µM, an IC50 (second compound 0.1 µM) of 2.24 µM and an IC50 (second compound 0.316 µM) of 2.36 µM. It also gave an IC50 (second compound 1 µM) of 2.03 µM, an IC50 (second compound 3.16 µM) of 1.8 µM and an IC50 (second compound 10 µM) of 0.876 µM. The viability, T/C [4] was 97.8%, the viability, T/C (second compound 0.0316 µM, first compound 0.1 µM) was 96.5% and the viability, T/C [6] was 73.9%. For the same molecule, the viability, T/C (second compound 0.0316 µM, first compound 1 µM) was 76.7%, the viability, T/C (second compound 0.0316 µM, first compound 3.16 µM) was 42.2% and the viability, T/C (second compound 0.0316 µM, first compound 10 µM) was 34.5%. For the same molecule, the viability, T/C [10] was 98.8%, the viability, T/C (second compound 0.1 µM, first compound 0.1 µM) was 86.9% and the viability, T/C [12] was 79.1%. It also gave a viability, T/C (second compound 0.1 µM, first compound 1 µM) of 63.5%, a viability, T/C (second compound 0.1 µM, first compound 3.16 µM) of 41.5% and a viability, T/C (second compound 0.1 µM, first compound 10 µM) of 38.5%. The viability, T/C [16] was 90.6%, the viability, T/C (second compound 0.316 µM, first compound 0.1 µM) was 91.2% and the viability, T/C [18] was 75%. The viability, T/C (second compound 0.316 µM, first compound 1 µM) was 67.1%, the viability, T/C (second compound 0.316 µM, first compound 3.16 µM) was 43.4% and the viability, T/C (second compound 0.316 µM, first compound 10 µM) was 31.8%. For the same molecule, the viability, T/C [22] was 80.2%, the viability, T/C (second compound 1 µM, first compound 0.1 µM) was 67.3% and the viability, T/C [24] was 76%. For the same molecule, the viability, T/C (second compound 1 µM, first compound 1 µM) was 57.2%, the viability, T/C (second compound 1 µM, first compound 3.16 µM) was 45.2% and the viability, T/C (second compound 1 µM, first compound 10 µM) was 34.8%. For the same molecule, the viability, T/C [28] was 69.7%, the viability, T/C (second compound 3.16 µM, first compound 0.1 µM) was 81.6% and the viability, T/C [30] was 65.5%. For the same molecule, the viability, T/C (second compound 3.16 µM, first compound 1 µM) was 57.9%, the viability, T/C (second compound 3.16 µM, first compound 3.16 µM) was 43.1% and the viability, T/C (second compound 3.16 µM, first compound 10 µM) was 29.9%. It also gave a viability, T/C [34] of 92.2%, a viability, T/C (second compound 10 µM, first compound 0.1 µM) of 81.3% and a viability, T/C [36] of 67.2%. The viability, T/C (second compound 10 µM, first compound 1 µM) was 44.6%, the viability, T/C (second compound 10 µM, first compound 3.16 µM) was 44% and the viability, T/C (second compound 10 µM, first compound 10 µM) was 34.9%.
